In assay [1] the test system is rats following ligation of spinal nerves. Particulars: local (subcutaneous) or systemic administration; cited from earlier work.
Assay [2] deals with rodents, models of inflammatory pain. Particulars: systemic delivery; cited from earlier work.
The target in a further assay is hCB1 (Homo sapiens, UniProt P21554). Briefly: Radioligand binding assay, hCB1. Particulars: Table C.
A further assay deals with human CB2 receptor (Homo sapiens, UniProt P34972). As to the kind of experiment: Radioligand binding assay, hCB2. Details: 93-0164 (CHO-K1 EA-Arrestin parental line); host or cells: CHO-K1 EA-Arrestin, clone #61. Particulars: Table C.
Another assay addresses CB1 (Mus musculus, UniProt P47746). Particulars: exogenous administration; cited from earlier work.

Broadly, the Ki is the dissociation constant of the complex between target and ligand, obtained from inhibition or displacement.

human CB2 receptor, sequence (P34972 whole entry): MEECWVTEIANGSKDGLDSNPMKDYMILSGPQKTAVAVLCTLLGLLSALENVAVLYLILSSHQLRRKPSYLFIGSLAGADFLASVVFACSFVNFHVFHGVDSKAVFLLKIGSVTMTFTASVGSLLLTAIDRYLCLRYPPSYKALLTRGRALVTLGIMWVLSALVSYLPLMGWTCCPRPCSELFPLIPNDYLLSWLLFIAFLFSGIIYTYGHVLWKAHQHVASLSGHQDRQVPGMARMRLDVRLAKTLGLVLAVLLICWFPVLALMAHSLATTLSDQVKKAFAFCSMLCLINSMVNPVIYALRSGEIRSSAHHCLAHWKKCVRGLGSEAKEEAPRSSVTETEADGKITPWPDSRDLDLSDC
CB1, sequence (P47746 whole entry): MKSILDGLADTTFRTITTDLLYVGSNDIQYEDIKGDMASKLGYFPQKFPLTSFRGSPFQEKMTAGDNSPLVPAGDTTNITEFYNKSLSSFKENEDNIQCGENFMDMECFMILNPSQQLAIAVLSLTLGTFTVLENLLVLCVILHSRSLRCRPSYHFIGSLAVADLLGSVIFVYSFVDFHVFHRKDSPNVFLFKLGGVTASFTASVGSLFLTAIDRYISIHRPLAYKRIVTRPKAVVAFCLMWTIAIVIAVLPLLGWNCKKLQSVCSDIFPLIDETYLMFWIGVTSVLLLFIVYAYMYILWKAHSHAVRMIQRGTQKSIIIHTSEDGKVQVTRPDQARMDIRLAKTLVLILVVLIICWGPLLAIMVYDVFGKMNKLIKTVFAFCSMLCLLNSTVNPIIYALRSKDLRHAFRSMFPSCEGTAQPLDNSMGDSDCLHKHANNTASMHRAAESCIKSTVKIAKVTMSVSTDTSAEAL
hCB1, sequence (P21554 whole entry): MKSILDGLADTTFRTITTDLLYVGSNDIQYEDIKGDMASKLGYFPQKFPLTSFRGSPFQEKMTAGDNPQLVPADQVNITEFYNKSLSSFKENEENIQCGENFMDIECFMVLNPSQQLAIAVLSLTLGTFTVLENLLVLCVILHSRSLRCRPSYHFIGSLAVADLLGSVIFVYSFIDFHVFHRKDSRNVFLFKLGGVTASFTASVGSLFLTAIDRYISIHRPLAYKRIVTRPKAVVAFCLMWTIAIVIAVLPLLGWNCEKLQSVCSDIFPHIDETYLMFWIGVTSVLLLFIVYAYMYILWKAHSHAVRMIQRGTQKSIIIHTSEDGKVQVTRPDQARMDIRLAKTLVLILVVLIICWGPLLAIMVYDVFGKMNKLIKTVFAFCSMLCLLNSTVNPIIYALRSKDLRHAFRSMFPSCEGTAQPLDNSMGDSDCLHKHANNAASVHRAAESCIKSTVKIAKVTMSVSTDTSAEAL
Method for human CB2 receptor: Preparation of Membranes: HTEK293 cells stably expressing human CB2 receptor were collected, washed in ice cold PBS, and centrifuged at 48,000×g for 20 min at 4° C. The cell pellet was then collected, resuspended in wash buffer (20 mM HEPES, pH 7.4 and 1 mM EDTA), homogenized on ice using a Brinkman Polytron, and centrifuged at 48,000×g for 20 min at 4° C. The resultant pellet was resuspended in ice cold 20 mM HEPES, pH 7.4, homogenized again on ice, recentrifuged for 20 min at 4° C., and membrane pellets were then stored at −80° C. until needed.
[^3H]CP55,940 and [^3H]WIN55,212-2 Radioligand Binding Assays: Radioligand binding assays for human CB2 receptors were performed using two different agonist radioligands, [^3H]CP55,940 and [^3H]WIN55,212-2 and similar assay conditions. For both assays, nonspecific binding was determined in the presence of 10 mM unlabeled compound. […] Then, 25 μL of BetaScint scintillation cocktail was added to each well, and plates were read in a Packard TopCount scintillation counter.

In the case of `CN1CCCCC1Cn1cc(C(=O)c2cc([N+](=O)[O-])ccc2I)c2ccccc21` (centres unmarked) [AM1241], the “Tactile and thermal hypersensitivity” value in assay [1] was “reverses tactile and thermal hypersensitivity”. Further, in assay [2], the “Hyperalgesia in carrageenan, capsaicin, and formalin models” value was “suppresses hyperalgesia”.

Turning to `CONC(=O)[C@@H](NC(=O)c1nn(-c2c[n+]([O-])ccn2)c2c1C[C@H]1C[C@@H]21)C(C)(C)C` [Compound 755, (1aR,5aR)-2-(4-Oxy-pyrazin-2-yl)-1a,2,5,5a-tetrahydro-1H-2,3-diaza-cyclopropa[a]pentalene-4-carboxylic acid ((S)-1-methoxycarbamoyl-2,2-dimethyl-propyl)-amide], the inhibition constant Ki on hCB1 was determined as 1200 nM; at human CB2 receptor, 3.8 nM.

Consider `CCCCC/C=C\C/C=C\C/C=C\C/C=C\CCCC(=O)NCCCl` [arachidonyl-2-chloroethylamide], for which the Effect on pain result on CB1 is given as “reduces pain”.

The record behind these values is US12201633B2, “Compounds and methods for treatment of visceral pain” (Arena Pharmaceuticals, Inc., priority 2017, dated 2025).
